The values below come from patent US20240246981A1, “[…] DERIVATIVES AS INHIBITORS OF […]-PEPTIDE CYCLOTRANSFERASE AND […]-PEPTIDE CYCLOTRANSFERASE LIKE PROTEIN” (Boehringer Ingelheim International GmbH, priority 2022, published 2024).

Data set [1] has as its target QPCT (Homo sapiens (Human), UniProt Q16769). As to the kind of experiment: Assay A: biochemical QPCT activity assay (MALDI-TOF MS). The settings on record: prior art compounds, Table 3; read-out: Inhibition of QPCT: IC50. Summed up: (§1)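 Compounds preincubated 10 min at 24 °C with enzyme in 20 mM Tris pH 7.5, 0.1 mM TCEP, 0.01% BSA, 0.001% Tween20; CD47 peptide substrate (final 10 μM for QPCTL, 20 μM for QPCT) reacted 40 min at 24 °C. Pyroglutamate product read by MALDI-TOF MS versus internal standard, normalized to controls; four-parameter fit.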

In data set [2] the test system is SIRPα signalling induced by Raji cells. As to the kind of experiment: Assay B: SIRPα signalling assay using Raji cells. It counts as cell-based, human. As to conditions: prior art compounds, Table 5, read-out: Inhibition of SIRPα signalling induced by Raji cells: IC50. Summed up: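 SIRPα signalling induced by Raji cells in a PathHunter reporter line, read as β-galactosidase complementation luminescence. Detection reagent 1 added for 15 min, then reagent 2 for 60 min in the dark, both at room temperature.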

For data set [3], the system named is SIRPα signalling induced by A549 cells. Briefly: Assay B: SIRPα signalling assay using A549 cells. The format is cell-based, human. The settings on record: prior art compounds, Table 5, read-out: Inhibition of SIRPα signalling induced by A549 cells: IC50. Summed up:
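5000 Raji or A549 cells were cultured 48 h at 37 °C with serially diluted compound (DMSO), then 15000 Jurkat PathHunter SIRPα reporter cells were added for 5 h. Beta-galactosidase luminescence was developed at RT, and IC50 obtained by 4-parameter sigmoidal fit.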

The subject of data set [4] is Caco-2 cells. Briefly: Assay C: permeability in CACO-2 cells. It counts as in vitro ADME. The settings on record: Caco-2, apical to basolateral; prior art compounds, Table 8. Summed up: (§2)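 Compound in transport solution applied to apical or basolateral donor side for A-B or B-A permeability, 3 filter replicates. Donor sampled at start and end, receiver at intervals up to 2 hours with volume replaced; concentrations by HPLC-MS/MS or scintillation counting.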
In general terms: Passage across Caco-2 layers is used to estimate intestinal permeability.

The target of data set [5] is human glutaminyl cyclase (hQC) (Homo sapiens (Human), UniProt Q16769). The settings on record: J-S, NCB 2015 supplementary information; read-out: IC50 on isolated hQC; cited from earlier work.
Data set [6] has as its target QPCTL (Homo sapiens (Human), UniProt Q9NXS2). As to the kind of experiment: Assay A: biochemical QPCTL activity assay (MALDI-TOF MS). As to conditions: prior art compounds, Table 3; read-out: Inhibition of QPCTL: IC50. Summed up:
as §1

A short description of data set [7]: Assay C: permeability in CACO-2 cells. It counts as in vitro ADME. As to conditions: human, pH 7.2, prior art compounds, Table 8. Summed up:
as §2

For data set [8], the target named is glutamine acyl cyclase isoenzyme (Homo sapiens (Human), UniProt Q9NXS2). The settings on record: given in CN 114874186; cited from earlier work.

Where two headings read alike, the source gives them in different places.

Chain of QPCT (Q16769 29-361): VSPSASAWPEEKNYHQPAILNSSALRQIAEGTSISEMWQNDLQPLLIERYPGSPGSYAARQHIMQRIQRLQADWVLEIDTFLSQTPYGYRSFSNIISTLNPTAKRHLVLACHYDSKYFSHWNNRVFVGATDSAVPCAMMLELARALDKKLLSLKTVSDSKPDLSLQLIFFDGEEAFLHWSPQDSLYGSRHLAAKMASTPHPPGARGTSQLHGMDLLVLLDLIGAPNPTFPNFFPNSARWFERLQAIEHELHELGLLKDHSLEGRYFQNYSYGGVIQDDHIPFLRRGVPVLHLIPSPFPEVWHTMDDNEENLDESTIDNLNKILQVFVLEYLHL
Chain of human glutaminyl cyclase (hQC) (Q16769 29-361): as above
Chain of QPCTL (Q9NXS2 whole entry): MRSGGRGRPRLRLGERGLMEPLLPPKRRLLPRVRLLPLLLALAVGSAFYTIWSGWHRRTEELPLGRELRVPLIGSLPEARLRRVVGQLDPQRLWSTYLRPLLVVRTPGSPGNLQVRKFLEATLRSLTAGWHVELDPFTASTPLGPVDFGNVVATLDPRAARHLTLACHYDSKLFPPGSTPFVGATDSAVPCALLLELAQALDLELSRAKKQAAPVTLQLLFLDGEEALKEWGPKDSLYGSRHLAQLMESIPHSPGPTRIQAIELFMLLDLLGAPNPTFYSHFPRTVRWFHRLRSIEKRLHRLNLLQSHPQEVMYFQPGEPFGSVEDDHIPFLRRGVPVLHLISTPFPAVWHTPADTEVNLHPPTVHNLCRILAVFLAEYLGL
Chain of glutamine acyl cyclase isoenzyme (Q9NXS2 whole entry): as above

In the case of `Cn1cnnc1C1CCN(c2ncccc2-c2cccnc2)CC1` [SEN180, reference compound], the IC50 – broadly, the concentration that inhibits the measured activity by half – was 0.176 µM in data set [1], 2.97 µM in data set [2], 0.868 µM in data set [3] and 0.17 µM in data set [5]. In data set [4], the “Permeability A-B” value was 4.2 10^−6 cm/s.

With `Cn1cnnc1C1CCN(S(=O)(=O)c2cccc(Nc3ccc(OCc4ccccc4)nc3)c2)CC1` [compound 23, reference compound], the IC50 in data set [6] is 4.77 µM; in data set [1] it was 1.84 µM; in data set [2] (Homo sapiens), over 10 µM; in data set [3] (Homo sapiens), over 10 µM; in data set [8], 0.0113 µM. In addition, the Papp A→B (as a rule, the apparent permeability from the apical to the basolateral side of a cell layer) at 2 h in data set [7] (Caco-2, apical to basolateral) was 3.5 ×10⁻⁶ cm/s. Also, in data set [7] (Caco-2), the efflux ratio (in general, the permeability from basolateral to apical divided by that in the opposite direction, in the common usage) at 2 h is 17.6.
